Results on 20 compounds are retold here after ChEMBL document CHEMBL2346632, “A one-pot domino synthesis and discovery of highly functionalized dihydrobenzo[b]thiophenes as AChE inhibitors” (Bioorg Med Chem Lett, 2013).

Broadly, the IC50 is the concentration at which inhibition is half-maximal. High values mean weaker potency in that assay, low ones greater potency in that assay.

The target in the experiment is Acetylcholinesterase (Electrophorus electricus, UniProt O42275). Briefly: Inhibition of electric eel AChE after 30 mins by Ellman's method. For orientation: DTNB colorimetry detects thiols as they appear.
Chain of Acetylcholinesterase (O42275 whole entry): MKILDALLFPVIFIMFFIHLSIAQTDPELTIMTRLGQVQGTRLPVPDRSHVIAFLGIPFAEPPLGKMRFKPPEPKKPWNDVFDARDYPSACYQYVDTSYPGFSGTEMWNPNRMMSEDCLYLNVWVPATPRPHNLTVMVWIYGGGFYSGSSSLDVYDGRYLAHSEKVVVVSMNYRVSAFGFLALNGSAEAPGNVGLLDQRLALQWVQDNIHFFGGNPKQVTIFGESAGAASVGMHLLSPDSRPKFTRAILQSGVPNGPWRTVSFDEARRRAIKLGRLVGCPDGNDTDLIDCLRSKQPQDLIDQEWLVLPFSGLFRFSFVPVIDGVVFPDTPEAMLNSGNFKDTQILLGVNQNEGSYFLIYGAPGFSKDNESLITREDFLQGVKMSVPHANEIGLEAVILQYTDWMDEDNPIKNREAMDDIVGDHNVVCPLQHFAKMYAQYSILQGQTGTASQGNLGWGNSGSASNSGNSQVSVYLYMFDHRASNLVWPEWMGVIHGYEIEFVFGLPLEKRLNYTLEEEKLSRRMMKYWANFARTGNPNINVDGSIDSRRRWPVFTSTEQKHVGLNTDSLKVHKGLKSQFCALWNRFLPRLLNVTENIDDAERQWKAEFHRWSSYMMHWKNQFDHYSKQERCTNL
Take `COc1ccc(-c2c(C#N)c(N)c(C#N)c3c2SC(c2ccccc2)C3)cc1` (racemic): half-maximal inhibition (IC50) required 5.11 µM.

Consider `N#Cc1c(N)c(C#N)c(-c2ccc(Cl)cc2)c2c1CC(c1ccccc1)S2` (racemic), for which half-maximal inhibition (IC50) required 29.2 µM.

The compound `N#Cc1c(N)c(C#N)c(-c2ccc(F)cc2)c2c1CC(c1ccccc1)S2` (racemic) returned a 50% inhibitory concentration (IC50) of 32.3 µM.

Consider `N#Cc1c(N)c(C#N)c(-c2ccc(Br)cc2)c2c1CC(c1ccccc1)S2` (racemic), for which half-maximal inhibition (IC50) was put at 37.9 µM.

Turning to `CC(C)c1ccc(-c2c(C#N)c(N)c(C#N)c3c2SC(c2ccccc2)C3)cc1` (racemic), half-maximal inhibition (IC50) required 37.1 µM.

`Cc1ccc(-c2c(C#N)c(N)c(C#N)c3c2SC(c2ccc(C)cc2)C3)cc1` (racemic): the IC50 was 4.24 µM.

On to `COc1ccc(-c2c(C#N)c(N)c(C#N)c3c2SC(c2ccc(C)cc2)C3)cc1` (racemic), for which the IC50 stood at 11.3 µM.

With `Cc1ccc(C2Cc3c(C#N)c(N)c(C#N)c(-c4ccc(Cl)cc4)c3S2)cc1` (racemic), inhibition was half-maximal at 13.6 µM (IC50).

`Cc1ccc(C2Cc3c(C#N)c(N)c(C#N)c(-c4ccc(F)cc4)c3S2)cc1` (racemic) gave an IC50 of 18.1 µM.

On to `Cc1ccc(C2Cc3c(C#N)c(N)c(C#N)c(-c4ccc(Br)cc4)c3S2)cc1` (racemic), for which the IC50 is 24.2 µM.

Regarding `CC(C)c1ccc(C2Cc3c(C#N)c(N)c(C#N)c(-c4ccc(Cl)cc4)c3S2)cc1` (racemic), half-maximal inhibition (IC50) required 48.3 µM.

As to `CC(C)c1ccc(C2Cc3c(C#N)c(N)c(C#N)c(-c4ccc(F)cc4)c3S2)cc1` (racemic), the 50% inhibitory concentration (IC50) worked out at 44.2 µM.

As to `Cc1ccc(-c2c(C#N)c(N)c(C#N)c3c2SC(c2ccc(Cl)cc2)C3)cc1` (racemic), the IC50 was determined as 17.3 µM.

`COc1ccc(-c2c(C#N)c(N)c(C#N)c3c2SC(c2ccc(Cl)cc2)C3)cc1` (racemic) gave an IC50 of 26.6 µM.

`N#Cc1c(N)c(C#N)c(-c2ccc(Cl)cc2)c2c1CC(c1ccc(Cl)cc1)S2` (racemic) had a half-inhibitory concentration (IC50) of 34.1 µM.

With `N#Cc1c(N)c(C#N)c(-c2ccc(F)cc2)c2c1CC(c1ccc(Cl)cc1)S2` (racemic), it took 39.2 µM to reach half-maximal inhibition (IC50).

As for `N#Cc1c(N)c(C#N)c(-c2ccc(Br)cc2)c2c1CC(c1ccc(Cl)cc1)S2` (racemic), half-maximal inhibition (IC50) required 41.3 µM.

For `COc1ccc(C2Cc3c(C#N)c(N)c(C#N)c(-c4ccc(C)cc4)c3S2)cc1` (racemic), the IC50 was 11.6 µM.

`COc1ccc(-c2c(C#N)c(N)c(C#N)c3c2SC(c2ccc(OC)cc2)C3)cc1` (racemic) had an IC50 of 4.16 µM.

`Cc1ccc(-c2c(C#N)c(N)c(C#N)c3c2SC(c2ccccc2)C3)cc1` (racemic) displayed an IC50 of 9.62 µM.
